Patent US20090136561A1, “Non-peptidyl agents with pHSP20-like activity, and uses thereof” (Prolexys Pharmaceuticals, Inc., priority 2004, published 2009)
pIC50: −log10 of the molar value. Several values for one entry are separate records, joined by “and”; a condition that tells them apart may be missing. Equal values may be shown once. Entries after “also recorded” stand apart in the source; their conditions may differ. Non-standard residues stand in square brackets, D forms with d. Residues, ends and D or L forms follow the SMILES beside them. pS = N[C@@H](COP(=O)(O)O)C(=O)O

Tests used:
[1] = target: T1, interaction between 14-3-3γ and pHSP20 (Homo sapiens, UniProt P61981); experiment: Fluorescence polarization assay of 14-3-3γ / fluorescein-labeled pHSP20 peptide (WLRRApSAP) interaction; format: binding; settings: for inhibition of interaction between 14-3-3γ and pHSP20: dose response, FIG. 9; for pIC50: multiple concentrations, FIG. 10
T1 sequence (P61981 1-247): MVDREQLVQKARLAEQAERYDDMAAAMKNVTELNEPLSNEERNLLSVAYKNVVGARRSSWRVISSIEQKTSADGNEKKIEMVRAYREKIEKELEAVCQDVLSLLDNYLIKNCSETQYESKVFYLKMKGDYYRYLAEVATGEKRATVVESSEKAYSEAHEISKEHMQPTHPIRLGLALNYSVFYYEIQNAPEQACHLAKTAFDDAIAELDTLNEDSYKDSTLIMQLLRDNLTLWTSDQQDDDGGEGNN
Method: The ability of compounds (a)-(k) to inhibit the interaction between 14-3-3γ and pHSP20 was determined by a fluorescence polarization (FP) assay. […] The initial screen for inhibitors examined approximately 50,000 compounds in the DiverSet library (ChemBridge, San Diego). Initial compound screening was carried out by first mixing peptide and individual compounds followed by addition of protein to a final volume of 15 ul. The final concentrations of each component were: 57.4 nM peptide, 10 uM compound, 5% DMSO, 1.5 uM 14-3-3 gamma, 0.01 M HEPES pH 7.4, 0.15 M NaCl, 3 mM EDTA, 0.005% Tween 20, 10 mM MnCl2, 9.33 mM Tris (7.5), and 0.0093% NaN3.
The ability of compounds (l) and (m) to inhibit the interaction between 14-3-3γ and pHSP20 was determined by a fluorescence polarization (FP) assay as described in Example 4, except that the compound was measured at multiple concentrations.

[2] = system: Primary human airway smooth muscle cells; experiment: Spontaneous bead motion (MSD) of RGD-coated microbeads on airway smooth muscle cells; format: cell-based; settings: for effect on bead motion: formulated with 4% cyclodextrin, 10-15 minutes incubation
Method: Primary human airway smooth muscle cells were isolated from healthy individuals and cultured to passage 3-6. The cells were grown to confluence, and then serum deprived for 24 hours. The serum-deprived cells were plated on plastic wells coated with collagen.
After the cells were plated, RGD-coated microbeads were added. […] Consequently, the movement of the cells can be determined by monitoring the motion of the microbeads. In this assay, the rate of spontaneous bead motions (i.e., cell motion) depends upon the rate of reorganization of the actin cytoskeleton.
The position of each bead was recorded using video microscopy. The two-dimensional trajectory of bead motion are expressed as a mean square displacement (MSD) as a function of time: […]
where ri(t) is the distance of the ith bead at time t relative to its position at time 0.
The spontaneous bead motion in each sample of cells was first measured for 5 minutes. […] Spontaneous bead motions were then measured for another 5 minutes.

[3] = system: Primary human airway smooth muscle cells; experiment: Magnetic twisting cytometry, cell stiffness (storage modulus G'); format: cell-based; settings: for change of cell stiffness (storage modulus): controls, measured over 10 minutes
Method: Primary human airway smooth muscle cells were isolated from healthy individuals and cultured to passage 3-6. The cells were grown to confluence, and then serum deprived for 24 hours. The serum-deprived cells were plated on plastic wells coated with collagen. After the cells were plated, RGD-coated microbeads were added. As described by Wang et al. Science 260:1124-1127, 1993, the microbeads become tightly anchored to the cell cytoskeleton. Consequently, the movement of the cells can be determined by monitoring the motion of the microbeads.
Once the cells were attached to the microbeads, the beads were magnetized using a magnetizing coil and twisted using a twisting coil, which generates an oscillating magnetic field at 0.7 Hz. The bead displacement is measured using video microscopy at 83 ms intervals. The amplitude of bead displacement is dependent on several factors, but generally the displacement is directly proportional to cell stiffness. The cell stiffness is expressed as a change of storage modulus (G′) over time (Maksym et al., J. Appl. Physiol. 89: 1619-1632, 2000).
The cell stiffness for control experiments and experiments using peptides was measured over 10 minutes. The peptides were added 1 minute after the start of the experiment. The cell stiffness for non-peptidyl compounds of the invention was measured for 1 minute, stopped, compound added and stiffness was measured for another 10 minutes.

[4] = system: Bovine coronary artery rings; experiment: Contraction/dilation of serotonin-treated bovine coronary artery rings; format: cell-based; settings: for effect on the rings: cyclodextrin formulation, serotonin treated, 30 minutes after treatment
Method: Bovine coronary artery rings were treated with compositions containing only cyclodextrin or formulations of cyclodextrin in combination with a pHSP20 peptide, compound (m) or compound (n). The contraction of the rings was measured over time after treatment with serotonin and one of the formulations above. Each of the formulations was tested at several concentrations, with the exception of the pHSP20 peptide.

[5] = system: 14-3-3 proteins; experiment: Pull-down with bead-immobilized peptides from HEK293 whole cell lysate, SDS-PAGE and MS analysis; format: binding, human; settings: peptide immobilized on Affigel 10 beads
Method: To determine if the pHSP20 peptide binds to 14-3-3, pull-down experiments were conducted with pHSP20 and its analogues, aHSP20 and scrHSP20, linked to NHS activated Affigel 10 beads. As an additional control, activated beads were also reacted with ethanolamine. Each of the bead-bound peptide samples and the ethanolamine control were then separately incubated for 1.5 h at 4° C. with a whole cell lysate derived from HEK293 cells. After thoroughly washing the beads, each of the four sets of beads was eluted with a 100 μM solution of the free peptide corresponding to the one immobilized on the beads; the ethanolamine control beads were eluted with pHSP20. Approximately 15% of the eluate volume was run on an SDS-PAGE gel, while the remainder of the eluate was precipitated with ethanol and then analyzed by a 2D-LC shotgun MS method (Washburn et al., 2001, Nat. Biotechnol. 19:242).
The N-terminal amino group of the peptides was utilized for the immobilization to N-hydroxysuccinimide activated Affi-Gel 10 beads (Biorad, Hercules, Calif.). For the immobilization, 60 μg of each peptide, dissolved in dimethylformamide (DMF), was incubated for 4 h with 100 μl beads and 0.14 μmol triethylamine (Sigma, St. Louis, Mo.). The final volume during the immobilization was 400 μl. […] The release of the ivDde group was monitored by measuring the absorption at 290 nm. […]

[6] = target: T2, 14-3-3 gamma isoform (Homo sapiens, UniProt P61981); experiment: Biacore competition: 14-3-3 gamma flowed over immobilized pHSP20 peptide in presence of competing peptides; format: binding; settings: free peptide as competitor
T2 construct: GST-His (E23) or Biotin-His (E25)
T2 sequence (P61981 1-247): T1 sequence (P61981 1-247)
Method: To determine the relative binding affinity between various truncated versions of the pHSP20 (phosphorylated HSP20) peptide and the 14-3-3 gamma isoform, Applicants employed Biacore binding assays and the experiments were set up as follows. The pHSP20 peptide used in the original experiments (e.g., WLRRAp[…]) was immobilized to a Biacore chip and competition experiments were performed by flowing a 14-3-3 gamma isoform protein over the chip in the presence of different pHSP20 truncation variants. The pHSP20 truncation variants included: a) pHSP20 (positive control); b) HSP20 (unphosphorylated pHSP20, negative control); c) RRApSAP (minimal 14-3-3 consensus binding sequence); d) WLRRApSAP; e) RRApSAPLP; f) RRAp[…]; g) WLRRApSAPLP.
Competition experiments were done whereby the only variable between experiments is the identity of the competing peptide.

[7] = system: 14-3-3 isoforms (YWHAG, YWHAH, YWHAE, YWAHB, YWHAZ); experiment: Biacore binding of tagged 14-3-3 isoforms to immobilized pHSP20 peptide; settings: E23- and E25-tagged 14-3-3 proteins
Method: To further determine binding specificity of the pHSP20 peptide for each 14-3-3 isoform, similar binding experiments were carried out with each 14-3-3 isoform. Various 14-3-3 isoforms were either tagged with GST-His (referred to as “E23”) or tagged with Biotin-His (referred to as “E25”). The E23-14-3-3 proteins (tagged with GST-His) bound much better than the E25-14-3-3 proteins (tagged with Biotin-His). Similar effects were detected by using a version of YWHAG (also referred to as 14-3-3γ) in which the GST tag was proteolytically removed. […] It is believed that the GST either has a chaperone or stabilizing effect on YWHAG or it promotes the formation of dimers of YWHAG which could have different binding properties to pHSP20. Further experiments are planned to elucidate this discrepancy.

Q: How did the “inhibition of interaction between 14-3-3γ and pHSP20” value (from here on “inhibition”) [1] turn out when `CC(C)(C)c1nc(Nc2ccccc2)s[n+]1C=C(Cl)Cl` [(a)] was run?
A: Its value is “able to largely inhibit interaction”.

Q: Which “inhibition” value [1] does the source give for `COc1ccccc1Nc1nc(-c2ccccc2)[n+](-c2ccccc2)s1` [(j)] here?
A: The value was “able to largely inhibit interaction”.

Q: With `O=C(N/N=C/c1cc(O)ccc1Br)c1ccncc1` [(o)] as the molecule, how does the “effect on bead motion” value [2] read?
A: The value was “not conclusive”.

Q: How did the “inhibition” value [1] turn out when `c1ccc(CNc2nc(-c3ccccc3)[n+](-c3ccccc3)s2)cc1` [compound (f)] was run?
A: Its value is “able to largely inhibit interaction”.

Q: What about the “change of cell stiffness compared to the cyclodextrin control” value ([3]; solubilized with cyclodextrin, 10 minutes after addition) of the same molecule?
A: Its value is “particular striking”.

Q: What about the “effect on bead motion” value [2] of the same molecule?
A: Its value is “clearly increases bead motion”.

Q: How did the pIC50 [1] turn out when `O=[N+]([O-])C1=Cc2cc(Br)cc(Br)c2OC1c1c(Cl)cccc1Cl` (stereo not drawn) [compound (l)] was run?
A: The pIC50 was about 4.49.

Q: `O=C(N/N=C/c1ccc(O)c(O)c1O)c1ccncc1` [compound (m)] was tested. Which pIC50 [1] did it give?
A: Its pIC50 is about 4.87.

Q: What about the “effect on bead motion” value [2] of the same molecule?
A: Its value is “not conclusive”.

Q: What about the “duration of vasodilatory effect compared with pHSP20 peptide” value [4] of the same molecule?
A: The value was “longer than that of the pHSP20 peptide”.

Q: And the “vasodilatory effect at 40 minutes after treatment” value [4]?
A: The value was “no significant decrease in the vasodilatory effect”.

Q: What about the “effect on the rings” value [4] of the same molecule?
A: The value was “vasodilatory effect”.

Q: How did the “effect on bead motion” value [2] turn out when `COc1ccc(/C=N/NC(=O)c2cncc(Br)c2)c(OC)c1OC` [compound (n)] was run?
A: The value was “not conclusive”.

Q: What about the “duration of vasodilatory effect compared with pHSP20 peptide” value [4] of the same molecule?
A: The value was “longer than that of the pHSP20 peptide”.

Q: What about the “vasodilatory effect at 40 minutes after treatment” value [4] of the same molecule?
A: The value was “no significant decrease in the vasodilatory effect”.

Q: And the “effect on the rings” value [4]?
A: The value was “vasodilatory effect”.

Q: With `NCCc1c[nH]cn1` [histamine] as the molecule, how does the “change of cell stiffness (storage modulus)” value [3] read?
A: Its value is “increased the cell stiffness”.

Q: `CC(C)NCC(O)c1ccc(O)c(O)c1` (stereo not drawn) [isoproterenol] was tested. Which “change of cell stiffness (storage modulus)” value [3] did it give?
A: Its value is “decreased the stiffness”.

Q: Which “binding of 14-3-3 proteins in pull-down” value [5] does the source give for `CC(C)C[C@H](NC(=O)CNC(=O)[C@@H]1CCCN1C(=O)[C@H](CC(C)C)NC(=O)[C@@H]1CCCN1C(=O)[C@H](C)NC(=O)[C@H](COP(=O)(O)O)NC(=O)[C@H](C)NC(=O)[C@H](CCCNC(=N)N)NC(=O)[C@H](CCCNC(=N)N)NC(=O)[C@H](CC(C)C)NC(=O)[C@@H](N)Cc1c[nH]c2ccccc12)C(=O)N[C@@H](CO)C(=O)N[C@@H](CCCCN)C(=O)O` [pHSP20 peptide] (H-WLRRA[pS]APLPGLSK-OH; N-terminus and C-terminus assumed) here?
A: Its value is “binds to 14-3-3 proteins”.

Q: And the “competition with immobilized pHSP20 peptide for binding to 14-3-3γ” value (shortened to “competition”) [6]?
A: Its value is “binding of 14-3-3 to the pHSP20 ligand is decreased”.

Q: And the “isoform specificity for the pHSP20 peptide” value [7]?
A: The value was “YWHAG>YWHAH>YWHAE=YWAHB=YWHAZ and 14-3-3γ (YWHAG) and 14-3-3η (YWHAH) bind stronger than the other 14-3-3 isoforms”.

Q: Which “effect on bead movement” value ([2]; 200 μM, negative control) does the source give for `O=[As]O` [sodium arsenite, reference compound] here?
A: Its value is “decrease in bead movement”.

Q: How did the “competition” value [6] turn out when RRApSAP was run?
A: The value was “competed better than the original pHSP20 sequence; also recorded: higher binding affinity to 14-3-3 gamma than the original pHSP20 peptide; also recorded: strong competition”.

Q: For WLRRApSAP, which “competition” value [6] is on record?
A: Its value is “higher binding affinity to 14-3-3 gamma than the original pHSP20 peptide; also recorded: strong competition”.
